The source of these data is patent US7816342B2, “Anti-obesity compositions” (Hoffmann-La Roche Inc., priority 2002, dated 2010).

This experiment has as its system Healthy volunteers. In words: acute human side effect model (3-meal test), free oil. Type of experiment: in vivo. Particulars: orlistat alone (own control), individual volunteers. An excerpt: To test substances that will ameliorate the oil-related side effects associated with orlistat treatment, an acute human model was developed. Healthy volunteers received orlistat alone or in combination with the test substance during 3 consecutive meals (3-meal test). The modified orlistat formulations used in these 3-meal tests induce 70-80% fat excretion. A questionnaire was given to the volunteers to record side effects. The most severe oil related side effect is oily spotting (uncontrolled loss of oil). This side effect is difficult to quantify accurately in an acute model, however, in some volunteers a spontaneous separation of fat from formed stool was observed. This amount of fat, called free oil (mainly containing triglycerides) was isolated and weighted. The amount of free oil was used as a surrogate marker for the oily spotting as this is considered necessary for the appearance of oily spotting. Two clinical studies have been conducted to investigate the gastro-intestinal adverse event modifying effects of numerous substances. It appears that volunteers show an individual sensitivity to the orlistat-related gastro-intestinal side effects. […] For a given volunteer a substance is considered as positive when the free oil quantity is reduced by at least 50% compared to the control value (orlistat alone). […]

The structures appear in SMILES notation. Values joined by “and” are separate entries in the source; they are usually repeats but may differ in a detail not shown here. Equal values may be shown once.

As to `CCCCCCCCCCC[C@@H](C[C@@H]1OC(=O)[C@H]1CCCCCC)OC(=O)[C@H](CC(C)C)NC=O` [orlistat], the Free oil production is, setting by setting: (Test 1) 11 g/week and 9 g/week; (Test 2) 17 g/week and 40 g/week and 39 g/week.
